One assay relates to Corn. Put plainly: Tolerance rates for corn (injury score 0-9).
The next assay concerns Soy. Put plainly: Tolerance rates for soybean (injury score 0-9).

These results are taken from US12686873B2, “Plants having increased tolerance to herbicides” (priority 2012, dated 2026).

“And” between values parts separate entries of the source, which are not always exact repeats. Equal values may be shown once.

As for `CC(C)N(C)S(=O)(=O)NC(=O)c1cc(-n2c(=O)cc(C(F)(F)F)n(C)c2=O)c(F)cc1Cl` [saflufenacil], in the assay on Corn (Corn events with PPO L397D, F420M (SEQ ID NO 2), Saflufenacil 25 g ai/ha), the “Tolerance rate (injury score), Saflufenacil 25 g ai/ha” value was 2 and 3 and 1. Besides, in the assay on Corn (Corn events with PPO L397D, F420M (SEQ ID NO 2), Saflufenacil 50 g ai/ha), the “Tolerance rate (injury score), Saflufenacil 50 g ai/ha” value is 1 and 2 and 3 and 0. Moreover, the “Tolerance rate (injury score), Saflufenacil 100 g ai/ha” value in the assay with Corn (Corn events with PPO L397D, F420M (SEQ ID NO 2), Saflufenacil 100 g ai/ha) is 7 and 3; in the assay on Corn (Corn events with PPO L397E, F420M (SEQ ID NO 2), Saflufenacil 100 g ai/ha) it was 1 and 0 and 7; with Corn (Corn events with PPO L397Q (SEQ ID NO 2), Saflufenacil 100 g ai/ha), 4 and 5; with Corn (Corn events with PPO L397Q, F420M (SEQ ID NO 2), Saflufenacil 100 g ai/ha), 0 and 1; in the assay with Corn (Corn events with PPO L397Q, F420V (SEQ ID NO 2), Saflufenacil 100 g ai/ha) it was 4 and 2 and 3 and 7 and 5; in the assay with Corn (Corn events, amino acid substitution not given, Saflufenacil 100 g ai/ha), 1. The “Tolerance rate (injury score), corn” value in the assay with Corn (Saflufenacil 25 g ai/ha, corn events 37-53, amino acid substitution not given) is 6 and 7 and 5 and 8 and 4; with Corn (Saflufenacil 25 g ai/ha, corn events with PPO substitution F420L (SEQ ID NO 2)) it was 6 and 7; in the assay with Corn (Saflufenacil 25 g ai/ha, corn events with PPO substitution F420M (SEQ ID NO 2)), 4 and 6 and 8 and 7 and 5; in the assay on Corn (Saflufenacil 25 g ai/ha, corn events with PPO substitution L397D, F420V (SEQ ID NO 2)) it was 6 and 5 and 7; in the assay with Corn (Saflufenacil 25 g ai/ha, corn events with PPO substitution L397E, F420V (SEQ ID NO 2)) it was 1 and 0 and 3; with Corn (Saflufenacil 50 g ai/ha, corn events 54-81, amino acid substitution not given) it was 6 and 7 and 4 and 5. The “Tolerance rate (injury score), corn” value in the assay on Corn (Saflufenacil 50 g ai/ha, corn events with PPO substitution F420L (SEQ ID NO 2)) was 7 and 8 and 6; in the assay with Corn (Saflufenacil 50 g ai/ha, corn events with PPO substitution F420M (SEQ ID NO 2)), 7 and 6 and 8; in the assay on Corn (Saflufenacil 50 g ai/ha, corn events with PPO substitution L397D, F420V (SEQ ID NO 2)) it was 4 and 6 and 7; with Corn (Saflufenacil 50 g ai/ha, corn events with PPO substitution L397E, F420V (SEQ ID NO 2)), 1 and 0 and 2 and 3; in the assay with Corn (Saflufenacil 100 g ai/ha, corn events with PPO substitution F420L (SEQ ID NO 2)), 8 and 7 and 6; in the assay on Corn (Saflufenacil 100 g ai/ha, corn events with PPO substitution L397E, F420V (SEQ ID NO 2)) it was 0 and 1 and 3 and 2. The injury score in the assay on Soy (Soy, saflufenacil 12.5 g ai/ha, amino acid substitution F420L, SEQ ID NO 2) is 1 and 0 and 3; in the assay on Soy (Soy, saflufenacil 12.5 g ai/ha, amino acid substitution L369D, F392V, SEQ ID NO 40), 9 and 7 and 4 and 5 and 6; in the assay on Soy (Soy, saflufenacil 12.5 g ai/ha, amino acid substitution L397E, SEQ ID NO 2), 5 and 4 and 0 and 3; in the assay with Soy (Soy, saflufenacil 12.5 g ai/ha, amino acid substitution L397Q, SEQ ID NO 2), 4; in the assay with Soy (Soy, saflufenacil 12.5 g ai/ha, amino acid substitution none, SEQ ID NO 2) it was 2 and 4 and 7 and 8 and 5; in the assay with Soy (Soy, saflufenacil 12.5 g ai/ha, amino acid substitution none, SEQ ID NO 40), 9 and 3 and 4 and 8 and 7. Besides, the injury score is 9 and 0 and 2 in the assay on Soy (Soy, saflufenacil 25 g ai/ha, amino acid substitution F420L, SEQ ID NO 2); 9 and 5 and 6 and 7 and 4 in the assay on Soy (Soy, saflufenacil 25 g ai/ha, amino acid substitution L369D, F392V, SEQ ID NO 40); 7 and 2 and 9 and 5 and 3 with Soy (Soy, saflufenacil 25 g ai/ha, amino acid substitution L397D, SEQ ID NO 2); 3 and 6 and 4 and 5 and 1 with Soy (Soy, saflufenacil 25 g ai/ha, amino acid substitution L397E, SEQ ID NO 2); 3 in the assay on Soy (Soy, saflufenacil 25 g ai/ha, amino acid substitution L397Q, SEQ ID NO 2); 4 and 3 and 7 and 9 and 8 with Soy (Soy, saflufenacil 25 g ai/ha, amino acid substitution none, SEQ ID NO 2). Also, the injury score in the assay on Soy (Soy, saflufenacil 25 g ai/ha, amino acid substitution none, SEQ ID NO 40) was 9 and 6; with Soy (Soy, saflufenacil 50 g ai/ha, amino acid substitution F420L, SEQ ID NO 2), 9 and 0 and 2; in the assay on Soy (Soy, saflufenacil 50 g ai/ha, amino acid substitution L369D, F392V, SEQ ID NO 40), 9 and 6 and 7 and 5; in the assay with Soy (Soy, saflufenacil 50 g ai/ha, amino acid substitution L397D, SEQ ID NO 2), 9 and 4 and 3 and 6 and 5; in the assay on Soy (Soy, saflufenacil 50 g ai/ha, amino acid substitution L397E, F420M, SEQ ID NO 2), 1 and 0 and 2; in the assay on Soy (Soy, saflufenacil 50 g ai/ha, amino acid substitution L397E, SEQ ID NO 2), 3 and 6 and 4 and 7. Moreover, the injury score in the assay with Soy (Soy, saflufenacil 50 g ai/ha, amino acid substitution L397Q, F420M, SEQ ID NO 2) was 0 and 6 and 1 and 5 and 4; with Soy (Soy, saflufenacil 50 g ai/ha, amino acid substitution L397Q, F420V, SEQ ID NO 2), 0 and 7; in the assay with Soy (Soy, saflufenacil 50 g ai/ha, amino acid substitution L397Q, SEQ ID NO 2) it was 8; with Soy (Soy, saflufenacil 50 g ai/ha, amino acid substitution none, SEQ ID NO 2), 7 and 8 and 9 and 6; in the assay on Soy (Soy, saflufenacil 50 g ai/ha, amino acid substitution none, SEQ ID NO 40), 9 and 8; in the assay with Soy (Soy, saflufenacil 100 g ai/ha, amino acid substitution F420L, SEQ ID NO 2), 9. For the same compound, the injury score with Soy (Soy, saflufenacil 100 g ai/ha, amino acid substitution L369D, F392V, SEQ ID NO 40) was 9 and 6; in the assay with Soy (Soy, saflufenacil 100 g ai/ha, amino acid substitution L397D, SEQ ID NO 2) it was 9 and 4 and 6 and 5; with Soy (Soy, saflufenacil 100 g ai/ha, amino acid substitution L397E, F420M, SEQ ID NO 2) it was 2 and 0 and 1; in the assay on Soy (Soy, saflufenacil 100 g ai/ha, amino acid substitution L397Q, F420M, SEQ ID NO 2) it was 0 and 7 and 3 and 6 and 1 and 2; in the assay with Soy (Soy, saflufenacil 100 g ai/ha, amino acid substitution L397Q, F420V, SEQ ID NO 2), 0 and 7.
Consider `CCOc1cc(Oc2ccc(C(F)(F)F)cc2Cl)ccc1[N+](=O)[O-]` [Oxyfluorfen], for which the injury score in the assay with Soy (Oxyfluorfen 600 g ai/ha, amino acid substitution L397D_F420V Event A, SEQ ID NO 2) is 4 and 5 and 6 and 9; in the assay with Soy (Oxyfluorfen 600 g ai/ha, amino acid substitution L397D_F420V Event B, SEQ ID NO 2), 6 and 4 and 8 and 5; in the assay with Soy (Oxyfluorfen 600 g ai/ha, amino acid substitution none, SEQ ID NO none), 8 and 7 and 9; in the assay with Soy (Oxyfluorfen 1200 g ai/ha, amino acid substitution L397D_F420V Event A, SEQ ID NO 2), 5 and 4 and 3; with Soy (Oxyfluorfen 1200 g ai/ha, amino acid substitution L397D_F420V Event B, SEQ ID NO 2) it was 5 and 4 and 6; in the assay with Soy (Oxyfluorfen 1200 g ai/ha, amino acid substitution none, SEQ ID NO none), 9 and 8.
As to `Cc1nn(-c2cc(NS(C)(=O)=O)c(Cl)cc2Cl)c(=O)n1C(F)F` [sulfentrazone], the injury score in the assay with Soy (Sulfentrazone 350 g ai/ha, amino acid substitution L397D_F420V Event A, SEQ ID NO 2) was 9 and 6 and 3 and 5; in the assay on Soy (Sulfentrazone 350 g ai/ha, amino acid substitution L397D_F420V Event B, SEQ ID NO 2), 4 and 5 and 6; with Soy (Sulfentrazone 350 g ai/ha, amino acid substitution none, SEQ ID NO none), 9 and 7 and 8; with Soy (Sulfentrazone 700 g ai/ha, amino acid substitution L397D_F420V Event A, SEQ ID NO 2), 2 and 3 and 7 and 1 and 4 and 6; with Soy (Sulfentrazone 700 g ai/ha, amino acid substitution L397D_F420V Event B, SEQ ID NO 2), 4 and 5 and 6; in the assay on Soy (Sulfentrazone 700 g ai/ha, amino acid substitution none, SEQ ID NO none) it was 9.
Take `CS(=O)(=O)NC(=O)c1cc(Oc2ccc(C(F)(F)F)cc2Cl)ccc1[N+](=O)[O-]` [fomesafen]: the injury score in the assay with Soy (Fomesafen 600 g ai/ha, amino acid substitution L397D_F420V Event A, SEQ ID NO 2) was 1 and 2 and 0 and 4; in the assay with Soy (Fomesafen 600 g ai/ha, amino acid substitution L397D_F420V Event B, SEQ ID NO 2) it was 2 and 4 and 1 and 3; in the assay with Soy (Fomesafen 600 g ai/ha, amino acid substitution none, SEQ ID NO none), 5 and 4.
As to `C#CCN1C(=O)COc2cc(F)c(N3C(=O)C4=C(CCCC4)C3=O)cc21` [flumioxazin], the injury score in the assay with Soy (Flumioxazin 150 g ai/ha, amino acid substitution L397D_F420V Event A, SEQ ID NO 2) is 9 and 6 and 5 and 4; in the assay on Soy (Flumioxazin 150 g ai/ha, amino acid substitution L397D_F420V Event B, SEQ ID NO 2) it was 5 and 6 and 4; in the assay on Soy (Flumioxazin 150 g ai/ha, amino acid substitution none, SEQ ID NO none), 9.
